Square brackets hold non-standard residues; d marks the D form. Peptide text beside a SMILES is read from it. aThr = C[C@H](O)[C@H](N)C(=O)O
Target: Ribonucleoside-diphosphate reductase RR1 (Homo sapiens) (UniProt P23921+Q7LG56+P31350)
Experiment: Relative inhibitory potency against mammalian ribonucleotide reductase
Type: protein-complex assay

Chain of Ribonucleoside-diphosphate reductase RR1 (Homo sapiens) (P23921 whole entry, looked up): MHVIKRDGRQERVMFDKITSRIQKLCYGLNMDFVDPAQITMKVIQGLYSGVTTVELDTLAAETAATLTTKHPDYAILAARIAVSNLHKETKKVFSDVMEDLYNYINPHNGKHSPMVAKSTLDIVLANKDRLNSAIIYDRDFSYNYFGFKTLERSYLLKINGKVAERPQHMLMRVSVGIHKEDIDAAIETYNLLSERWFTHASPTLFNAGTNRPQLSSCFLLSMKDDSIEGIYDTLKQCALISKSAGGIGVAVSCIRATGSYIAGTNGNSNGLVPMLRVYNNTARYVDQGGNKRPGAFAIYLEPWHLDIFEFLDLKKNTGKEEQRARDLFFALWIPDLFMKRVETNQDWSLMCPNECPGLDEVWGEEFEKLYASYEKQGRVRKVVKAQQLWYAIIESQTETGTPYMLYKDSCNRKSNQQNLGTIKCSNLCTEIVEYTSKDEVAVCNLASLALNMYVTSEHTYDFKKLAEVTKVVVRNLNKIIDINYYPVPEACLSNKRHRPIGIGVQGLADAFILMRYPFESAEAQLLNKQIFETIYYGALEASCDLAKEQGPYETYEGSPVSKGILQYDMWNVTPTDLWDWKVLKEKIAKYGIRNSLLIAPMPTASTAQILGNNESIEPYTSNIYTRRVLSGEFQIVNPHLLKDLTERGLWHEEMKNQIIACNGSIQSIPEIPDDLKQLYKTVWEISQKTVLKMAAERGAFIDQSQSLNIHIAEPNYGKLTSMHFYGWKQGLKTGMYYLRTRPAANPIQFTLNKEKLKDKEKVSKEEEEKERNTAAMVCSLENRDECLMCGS
Chain of Ribonucleoside-diphosphate reductase RR1 (Homo sapiens) (P31350 whole entry, looked up): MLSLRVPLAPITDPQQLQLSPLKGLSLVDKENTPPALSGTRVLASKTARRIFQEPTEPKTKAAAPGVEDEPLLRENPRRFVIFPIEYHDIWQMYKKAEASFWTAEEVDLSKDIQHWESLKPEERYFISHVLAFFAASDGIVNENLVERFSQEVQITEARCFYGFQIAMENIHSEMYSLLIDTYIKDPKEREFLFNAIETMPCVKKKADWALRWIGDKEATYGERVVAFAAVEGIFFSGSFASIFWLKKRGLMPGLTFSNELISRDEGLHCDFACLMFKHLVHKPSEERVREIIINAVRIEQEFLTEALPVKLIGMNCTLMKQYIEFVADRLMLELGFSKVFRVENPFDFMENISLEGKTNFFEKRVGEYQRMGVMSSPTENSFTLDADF
Chain of Ribonucleoside-diphosphate reductase RR1 (Homo sapiens) (Q7LG56 whole entry, looked up): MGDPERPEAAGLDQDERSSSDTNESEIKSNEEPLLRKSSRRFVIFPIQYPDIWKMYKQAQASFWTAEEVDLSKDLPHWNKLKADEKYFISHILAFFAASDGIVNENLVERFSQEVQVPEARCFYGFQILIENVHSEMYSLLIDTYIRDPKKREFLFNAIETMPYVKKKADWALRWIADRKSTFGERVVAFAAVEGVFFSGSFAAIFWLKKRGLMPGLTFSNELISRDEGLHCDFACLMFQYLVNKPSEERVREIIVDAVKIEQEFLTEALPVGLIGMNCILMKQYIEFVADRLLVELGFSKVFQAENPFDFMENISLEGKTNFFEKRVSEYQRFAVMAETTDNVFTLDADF

RI [%] | Compound
10 | CC(=O)N[C@@H](Cc1ccc(N=[N+]=[N-])cc1)C(=O)N[C@H](C(=O)N[C@@H](CC(C)C)C(=O)N[C@@H](CC(=O)O)C(=O)N[C@@H](C)C(=O)N[C@@H](CC(=O)O)C(=O)N[C@@H](Cc1ccccc1)C(=O)O)[C@H](C)O
< 3 | CC(=O)N[C@H](C(=O)N[C@@H](CC(C)C)C(=O)N[C@@H](CC(=O)O)C(=O)N[C@@H](C)C(=O)N[C@@H](CC(=O)O)C(=O)N[C@@H](Cc1ccccc1)C(=O)O)[C@H](C)O
9 | CC(=O)N[C@@H](Cc1ccccc1)C(=O)N[C@H](C(=O)N[C@@H](CC(C)C)C(=O)N[C@@H](CC(=O)O)C(=O)NCC(=O)N[C@@H](CC(=O)O)C(=O)N[C@@H](Cc1ccccc1)C(=O)O)[C@H](C)O
18 | CC(=O)N[C@@H](Cc1ccccc1)C(=O)N[C@H](C(=O)N[C@@H](Cc1ccccc1)C(=O)N[C@@H](CC(=O)O)C(=O)N[C@@H](C)C(=O)N[C@@H](CC(=O)O)C(=O)N[C@@H](Cc1ccccc1)C(=O)O)[C@H](C)O
2.5 | CC(=O)N[C@@H](Cc1ccccc1)C(=O)N[C@H](C(=O)N[C@@H](CC(C)C)C(=O)N[C@@H](CC(=O)O)C(=O)N[C@@H](Cc1ccccc1)C(=O)O)[C@H](C)O
100 | CC(=O)N[C@@H](CC(N)=O)C(=O)N[C@@H](CO)C(=O)N[C@@H](Cc1ccccc1)C(=O)N[C@H](C(=O)N[C@@H](CC(C)C)C(=O)N[C@@H](CC(=O)O)C(=O)N[C@@H](C)C(=O)N[C@@H](CC(=O)O)C(=O)N[C@@H](Cc1ccccc1)C(=O)O)[C@H](C)O
40 | CC(=O)N[C@@H](Cc1ccccc1)C(=O)N[C@H](C(=O)N[C@@H](CC(C)C)C(=O)N[C@@H](CC(N)=O)C(=O)N[C@@H](C)C(=O)N[C@@H](CC(=O)O)C(=O)N[C@@H](Cc1ccccc1)C(=O)O)[C@H](C)O
2.5 | Ac-FLDADF-OH
< 3 | CC(=O)N[C@@H](CC(C)C)C(=O)N[C@H](C(=O)N[C@@H](CC(C)C)C(=O)N[C@@H](CC(=O)O)C(=O)N[C@@H](C)C(=O)N[C@@H](CC(=O)O)C(=O)N[C@@H](Cc1ccccc1)C(=O)O)[C@H](C)O (Ac-L[aThr]LDADF-OH)
< 3 | CC(=O)N[C@@H](Cc1ccccc1)C(=O)N[C@H](C(=O)N[C@@H](CC(C)C)C(=O)N[C@@H](CC(=O)O)C(=O)N[C@@H](C)C(=O)N[C@@H](CC(=O)O)C(=O)N[C@@H](CC(C)C)C(=O)O)[C@H](C)O (Ac-F[aThr]LDADL-OH)
35 | CC(=O)N[C@@H](Cc1ccccc1)C(=O)N[C@H](C(=O)N[C@@H](CC(C)C)C(=O)N[C@@H](CC(=O)O)C(=O)N[C@@H](CC(C)C)C(=O)N[C@@H](CC(=O)O)C(=O)N[C@@H](Cc1ccccc1)C(=O)O)[C@H](C)O
1.7 | CC(=O)N[C@@H](Cc1ccccc1)C(=O)N[C@H](C(=O)N[C@@H](CC(C)C)C(=O)N[C@@H](CC(=O)O)C(=O)N[C@@H](C)C(=O)N[C@@H](CCC(=O)O)C(=O)N[C@@H](Cc1ccccc1)C(=O)O)[C@H](C)O
100 | CC(=O)N[C@@H](CO)C(=O)N[C@@H](Cc1ccccc1)C(=O)N[C@H](C(=O)N[C@@H](CC(C)C)C(=O)N[C@@H](CC(=O)O)C(=O)N[C@@H](C)C(=O)N[C@@H](CC(=O)O)C(=O)N[C@@H](Cc1ccccc1)C(=O)O)[C@H](C)O
2.9 | CC(=O)N[C@@H](Cc1ccccc1)C(=O)N[C@H](C(=O)N[C@@H](CC(C)C)C(=O)N[C@@H](C)C(=O)N[C@@H](C)C(=O)N[C@@H](CC(=O)O)C(=O)N[C@@H](Cc1ccccc1)C(=O)O)[C@H](C)O
2.1 | CC(=O)N[C@@H](Cc1ccccc1)C(=O)N[C@H](C(=O)N[C@@H](CC(C)C)C(=O)N[C@@H](CC(=O)O)C(=O)N[C@@H](C)C(=O)N[C@@H](CC(=O)O)C(=O)N[C@@H](Cc1ccccc1)C(=O)N[C@@H](C)C(=O)N[C@@H](C)C(=O)O)[C@H](C)O (Ac-F[aThr]LDADFAA-OH)
23 | CC(=O)N[C@@H](Cc1ccccc1)C(=O)N[C@H](C(=O)N[C@@H](CC(C)C)C(=O)N[C@@H](CC(=O)O)C(=O)N[C@@H](C)C(=O)N[C@@H](CC(N)=O)C(=O)N[C@@H](Cc1ccccc1)C(=O)O)[C@H](C)O
10 | CC(=O)N[C@@H](Cc1ccc(N)cc1)C(=O)N[C@H](C(=O)N[C@@H](CC(C)C)C(=O)N[C@@H](CC(=O)O)C(=O)N[C@@H](C)C(=O)N[C@@H](CC(=O)O)C(=O)N[C@@H](Cc1ccccc1)C(=O)O)[C@H](C)O
35 | CC(=O)N[C@@H](Cc1ccccc1)C(=O)N[C@H](C(=O)N[C@H](C(=O)N[C@@H](CC(=O)O)C(=O)N[C@@H](C)C(=O)N[C@@H](CC(=O)O)C(=O)N[C@@H](Cc1ccccc1)C(=O)O)C(C)C)[C@H](C)O
3 | CC(=O)N[C@@H](Cc1ccccc1)C(=O)N[C@H](C(=O)N[C@@H](CC(C)C)C(=O)N[C@@H](CC(=O)O)C(=O)N[C@@H](CC(=O)O)C(=O)N[C@@H](Cc1ccccc1)C(=O)O)[C@H](C)O
100 | CC(=O)N[C@@H](Cc1ccccc1)C(=O)N[C@H](C(=O)N[C@@H](CC(C)C)C(=O)N[C@@H](CC(=O)O)C(=O)N[C@@H](C)C(=O)N[C@@H](CC(=O)O)C(=O)N[C@@H](Cc1ccccc1)C(=O)O)[C@H](C)O (Ac-F[aThr]LDADF-OH)
< 3 | CC(C)C[C@H](NC(=O)[C@@H](NC(=O)[C@@H](N)Cc1ccccc1)[C@H](C)O)C(=O)N[C@@H](CC(=O)O)C(=O)N[C@@H](C)C(=O)N[C@@H](CC(=O)O)C(=O)N[C@@H](Cc1ccccc1)C(=O)O (H-F[aThr]LDADF-OH)
4.9 | CC(=O)N[C@@H](Cc1ccccc1)C(=O)N[C@H](C(=O)N[C@@H](C)C(=O)N[C@@H](CC(=O)O)C(=O)N[C@@H](C)C(=O)N[C@@H](CC(=O)O)C(=O)N[C@@H](Cc1ccccc1)C(=O)O)[C@H](C)O
28 | CC(=O)N[C@@H](Cc1ccccc1)C(=O)N[C@H](C(=O)N[C@@H](CC(C)C)C(=O)N[C@@H](CC(=O)O)C(=O)N[C@@H](C)C(=O)N[C@@H](C)C(=O)N[C@@H](Cc1ccccc1)C(=O)O)[C@H](C)O
34 | CC(=O)N[C@@H](Cc1ccccc1)C(=O)N[C@H](C(=O)N[C@@H](CC(C)C)C(=O)N[C@@H](CC(=O)O)C(=O)N[C@@H](C)C(=O)N[C@@H](CC(C)C)C(=O)N[C@@H](Cc1ccccc1)C(=O)O)[C@H](C)O
25 | CC(C)C[C@H](NC(=O)[C@@H](NC(=O)[C@H](Cc1ccccc1)NC(=O)[C@@H](N)CO)[C@H](C)O)C(=O)N[C@@H](CC(=O)O)C(=O)N[C@@H](C)C(=O)N[C@@H](CC(=O)O)C(=O)N[C@@H](Cc1ccccc1)C(=O)O

Source: ChEMBL document CHEMBL1126924, “R2 C-terminal peptide inhibition of mammalian and yeast ribonucleotide reductase” (J Med Chem, 1993)
